# Measurements from patent publication US3984470A, “Amidoxime derivatives and process for preparing the same” (priority 1974, dated 1976).
# Experiments:
# [1] = tested on: stereotypies induced by amphetamine; experiment: Potentiation of the stereotypies induced by amphetamine; type: in vivo, rats
# Method: It is commonly admitted that amphetamine induces stereotypies by stimulating the dopaminergic receptors and inhibiting the re-uptake of dopamine into the neuron.
# The thymoanaleptics potentiate these stereotypies.
# Thirty minutes later, a dose of 10 mg/kg of the compound to be tested was given by oral route. Note was taken of the intensity of the stereotypies every 30 minutes for 150 minutes in accordance with the following scale which indicates the behaviour of the animal.
# 0 : the rat is motionless and asleep
# 1 : the rat is motionless and awake
# 3 : the rat stands on its hind paws and sniffs the lid of its cage in a stereotyped manner.
# 4 : the rat licks the walls of its cage in a stereotyped manner
# 5 : the rat bites the bars of its cage or sniffs the shavings of its litter in a stereotyped manner
# 6 : the rat chews the shavings in a stereotyped manner
# The average of the 5 results obtained for each batch was calculated and compared with the average obtained with the control animals.
# The difference between these averages represents the mean increase of the steroetypies of the treated animals in comparison with the controls.
# toxicity of yohimbine = experiment: Potentiation of the toxicity of yohimbine (test of QUINTON); type: in vivo, male mice; conditions: Mus musculus; 50 mg/kg oral; yohimbine hydrochloride 25 mg/kg i.p.; mortality after 24 hours
# Method: Yohimbine is a substance which provokes an increase in the serotonine level in the brain or a decrease in norepinephrine according to the author.
# For this purpose, the test of QUINTON was used which is described in Brit. J. Pharmacol. 21, 51 (1963). […] […] The percentage of mortality was noted after 24 hours.
# Table III hereunder expresses the percentage of potentiation of the toxicity due to yohimbine in comparison with the controls.
# The percentage in question was determined 24 hours after the administration of yohimbine.
# [2] = tested on: reserpine-induced hypothermia; experiment: Reserpine-induced hypothermia in the rat; type: in vivo, male rats CF1; conditions: reserpine 5 mg/kg i.p., mean to 6th hour vs controls
# Method: (§1) The thymoanaleptic properties of the compounds of the invention were determined by means of reserpine-induced ptosis and hypothermia in the rat.
# An intraperitoneal dose of 5 mg/kg of reserpine was administered to batches of 5 male rats CF1 weighing an average of 300 g. Thirty minutes later, the rectal temperature was determined and then a dose of the compound to be tested was given by oral route, except to the control animals. The rectal temperature of all the animals including the controls was taken every hour up to the 6th hour.
# The difference between these two averages enabled an estimation to be made regarding the antagonistic effect of the compounds of the invention on the hypothermia induced by reserpine.
# reserpine-induced ptosis = experiment: Reserpine-induced ptosis in the rat; type: in vivo, male rats of the CF1 strain; conditions: reserpine 5 mg/kg i.p., score scale 0-4, mean to 6th hour vs controls
# Method: as §1
# An intraperitoneal dose of 5 mg/kg of reserpine was administered to batches of 5 male rats of the CF1 strain weighing an average of 300 g.
# Thirty minutes later a dose of the compound to be studied was given by oral route and the inhibitory effect of the reserpine was noted every hour up to the sixth hour. Ptosis was evaluated for each eye in accordance with the following scale:
# 4 : eyelids completely closed.
# The difference between these two averages represents the average decrease of the ptosis in the treated animals as compared to the controls.
# [3] = tested on: cholinergic effects provoked by tremorine; experiment: Cholinolytic properties: action with respect to tremorine; type: in vivo, male mice of the OF1 strain; conditions: tremorine 10 mg/kg, difference vs controls
# Method: When injected into mice, tremorine and its metabolite, oxotremorine, produce central cholinergic effects, i.e. normal and provoked tremor as well as peripheral cholinergic effects i.e. weeping, sweating diarrhoea and salivation.
# Male mice of the OF1 strain weighing 22 g, were divided into batches of 10. Each batch with the exception of the control animals, received, by oral route, a dose of the compound to be tested.
# Thirty minutes later, 10 mg/kg of tremorine were administered to all the batches and thirty minutes after the injection of tremorine note was taken of the cholinergic effects on each animal in accordance with the following scale: […]
# [4] = 10 mg/kg oral, amphetamine 10 mg/kg i.p., every 30 min for 150 min
Structure (SMILES),"Average increase of the stereotypies [1, 4]",mortality at 50 mg/kg (toxicity of yohimbine) [%],Average inhibition of hypothermia (positive °C) ([2]; 10 mg/kg oral) [°C],Average decrease of Ptosis (reserpine-induced ptosis; 10 mg/kg oral),other results
"CCC(Oc1cccc2occc12)C(N)=NO (stereo not shown) [Compound 43, 2-(4-Benzofuryloxy)-butyramidoxime]",5.5,60,,,
"CC(C)(Oc1cccc2c1OCCO2)C(N)=NO [Compound 38, 2-[(1,4-Benzodioxanyl)-5-oxyl]-2-methyl-propionamidoxime]",,10,0.5,,
"Cc1oc2ccc(OCC(N)=NO)cc2c1C [Compound 15, 2-(2,3-Dimethyl-5-benzofuryloxy)-acetamidoxime]",1,10,,0.5,
"NC(COc1cccc2ccoc12)=NO [Compound 7, 2-(7-Benzofuryloxy)-acetamidoxime]",4.8,60,0.6,1.4,
"CC(C)(Oc1ccc2ccccc2c1)C(N)=NO [Compound 40, 2-(2-Naphthyloxy)-2-methyl-propionamidoxime]",,,0.2,,
"CC(Oc1c(C(C)C)oc2ccccc12)C(N)=NO (stereo not shown) [Compound 24, 2-(2-Isopropyl-3-benzofuryloxy)-propionamidoxime]",3.8,30,0.8,0.2,
"CCc1oc2ccccc2c1OC(CC)C(N)=NO (stereo not shown) [Compound 10, 2-(2-Ethyl-3-benzofuryloxy)-butyramidoxime]",5.6,10,,0.8,
"CCc1oc2ccccc2c1OCCC(N)=NO [Compound 13, 3-(2-Ethyl-3-benzofuryloxy)-propionamidoxime]",2.4,,,0.7,Central response tremor: Normal ([3]; 25 mg/kg oral): 0; Central response tremor: Provoked ([3]; 25 mg/kg oral): 0; Peripheral cholinergic response: Salivat. ([3]; 25 mg/kg oral): 0; Peripheral cholinergic response: Sweating ([3]; 25 mg/kg oral): 0; Peripheral cholinergic response: Weeping ([3]; 25 mg/kg oral): 0
"CC(C)c1oc2ccccc2c1OCC(N)=NO [Compound 36, 2-(2-Isopropyl-3-benzofuryloxy)-acetamidoxime]",1.8,,0.7,,
"CCC(Oc1c(C)oc2ccccc12)C(N)=NO (stereo not shown) [Compound 39, 2-(2-Methyl-3-benzofuryloxy)-butyramidoxime]",,40,0.3,,
"Cc1oc2ccc(OCCC(N)=NO)cc2c1C [Compound 23, 3-(2,3-Dimethyl-5-benzofuryloxy)-propionamidoxime]",,,0.3,0.2,
"Cc1oc2c(OC(C)C(N)=NO)cccc2c1C (stereo not shown) [Compound 44, 2-(2,3-Dimethyl-7-benzofuryloxy)-propionamidoxime]",,40,,,
"CCC(Oc1cccc2c(C)c(C)oc12)C(N)=NO (stereo not shown) [Compound 41, 2-(2,3-Dimethyl-7-benzofuryloxy)-butyramidoxime]",,,,,Average inhibition of hypothermia (positive °C) ([2]; 100 mg/kg oral): 1.1 °C
"CC(Oc1cccc2c1OCCO2)C(N)=NO (stereo not shown) [Compound 45, 2-[(1,4-Benzodioxanyl)-5-oxy]-propionamidoxime]",3,10,,,
"CC(Oc1ccc2occc2c1)C(N)=NO (stereo not shown) [Compound 29, 2-(5-Benzofuryloxy)-propionamidoxime]",,,,,"Average increase of the stereotypies ([1]; 20 mg/kg, same conditions (amphetamine 10 mg/kg i.p.)): 5; Average decrease of Ptosis (reserpine-induced ptosis; 100 mg/kg oral): 2.4; Average inhibition of hypothermia (positive °C) ([2]; 100 mg/kg oral): 0.8 °C"
"CCC(Oc1c(C(C)C)oc2ccccc12)C(N)=NO (stereo not shown) [Compound 20, 2(2-Isopropyl-3-benzofuryloxy)-butyramidoxime]",,,0.8,0.3,
"CCC(Oc1ccc2ccccc2c1)C(N)=NO (stereo not shown) [Compound 37, 2-(2-Naphthyloxy)-butyramidoxime]",1.8,,0.5,,
"CCc1oc2ccccc2c1OC(C)C(N)=NO (stereo not shown) [Compound 17, 2-(2-Ethyl-3-benzofuryloxy)-propionamidoxime]",1.2,20,,0.4,Central response tremor: Normal ([3]; 25 mg/kg oral): -0.8; Central response tremor: Provoked ([3]; 25 mg/kg oral): 0; Peripheral cholinergic response: Salivat. ([3]; 25 mg/kg oral): 0; Peripheral cholinergic response: Sweating ([3]; 25 mg/kg oral): 0; Peripheral cholinergic response: Weeping ([3]; 25 mg/kg oral): 0
"CCc1oc2ccccc2c1OCC(N)=NO [Compound 27, 2-(2-Ethyl-3-benzofuryloxy)-acetamidoxime]",,20,,,Average decrease of Ptosis (reserpine-induced ptosis; 20 mg/kg oral): 0.3
"CC(C)(Oc1cccc2ccccc12)C(N)=NO [Compound 11, 2-(1-Naphtyloxy)-2-methyl-propionamidoxime]",,,,0.7,Average inhibition of hypothermia (positive °C) ([2]; 20 mg/kg oral): 0.5 °C
"CCC(Oc1ccc2ccoc2c1)C(N)=NO (stereo not shown) [Compound 31, 2-(6-Benzofuryloxy)-butyramidoxime]",,,,,Average decrease of Ptosis (reserpine-induced ptosis; 100 mg/kg oral): 2.3
"CC(C)c1oc2ccccc2c1OC(C)(C)C(N)=NO [Compound 35, 2-(2-Isopropyl-3-benzofuryloxy)-2-methyl-propionamidoxime]",3,,0.7,,
"Cc1oc2ccccc2c1OC(C)C(N)=NO (stereo not shown) [Compound 16, 2-(2-Methyl-3-benzofuryloxy)-propionamidoxime]",,,,0.5,
"Cc1oc2ccccc2c1OCCC(N)=NO [Compound 19, 3-(2-Methyl-3-benzofuryloxy)-propionamidoxime]",,10,,0.3,
"Cc1oc2ccccc2c1OC(C)(C)C(N)=NO [Compound 22, 2-(2-Methyl-3-benzofuryloxy)-2-methyl-propionamidoxime]",4.2,,0.5,0.3,Central response tremor: Normal ([3]; 10 mg/kg oral): 0; Central response tremor: Provoked ([3]; 10 mg/kg oral): 0; Peripheral cholinergic response: Salivat. ([3]; 10 mg/kg oral): 0; Peripheral cholinergic response: Sweating ([3]; 10 mg/kg oral): 0; Peripheral cholinergic response: Weeping ([3]; 10 mg/kg oral): 0
"Cc1cc2cc(OCCC(N)=NO)ccc2o1 [Compound 32, 3-(2-Methyl-5-benzofuryloxy)-propionamidoxime]",,,,,Average decrease of Ptosis (reserpine-induced ptosis; 100 mg/kg oral): 2.3
"NC(COc1ccc2ccoc2c1)=NO [Compound 25, 2-(6-Benzofuryloxy)-acetamidoxime]",4.4,30,,0.2,
"Cc1oc2cc(OCC(N)=NO)ccc2c1C [Compound 21, 2-(2,3-Dimethyl-6-benzofuryloxy)-acetamidoxime]",4.2,40,,0.3,
"CC(Oc1ccc2ccoc2c1)C(N)=NO (stereo not shown) [Compound 28, 2-(6-Benzofuryloxy)-propionamidoxime]",,,,,Average decrease of Ptosis (reserpine-induced ptosis; 100 mg/kg oral): 2.4; Average inhibition of hypothermia (positive °C) ([2]; 100 mg/kg oral): 1.1 °C
"CCC(Oc1cccc2ccoc12)C(N)=NO (stereo not shown) [Compound 42, 2-(7-Benzofuryloxy)-butyramidoxime]",,60,,,
